Values of other authors, collected in paper PMC3906704 (Journal of molecular biochemistry, 2012).

Settings: substitution of Gly6 in GnRH-I; ref Karten & Rivier 1986

In the case of “L-Ala^6: GnRH analog with L-Ala^6 substitution (QHWSYALRPG; Gonadoliberin-1; UniProt P01148 24-33, looked up, variant G6A)”, the “Potency relative to native GnRH-I” value is listed as 4%.
